According to patent publication US5352591A, “Aldolase enzyme process for making 5-azido-5-deoxy-hexulose-1-phosphate” (The Scripps Research Institute, priority 1993, dated 1994):
Entries after “also recorded” stand apart in the source; their conditions may differ. Like-named read-outs stand apart in the source and are kept apart here.

Columns and labels:
[1] = target: T1, α-Glucosidase (brewer yeast) (Saccharomyces cerevisiae, UniProt P53341); assay: Inhibition of α-glucosidase (Lineweaver-Burk, p-nitrophenol release); assay type: biochemical; conditions: pH 6.5
T1 construct: purchased Sigma
Experimental: The following solutions were prepared for enzymatic assay: 1. […] The following illustrates the procedure in detail.

β-Glucosidase (almond) [2] = assay: Inhibition of β-glucosidase; assay type: biochemical; conditions: pH 6.5
Experimental: The following solutions were prepared for enzymatic assay: 1. […] The assay enzyme solution was prepared by dissolving 20 milligrams of solid protein (4.8 Units/milligram solid) in 6 mL PIPES-NaOAc buffer solution. […] The following illustrates the procedure in detail.

[3] = target: T2, β-Galactosidase (E. coli) (Escherichia coli, UniProt P00722); assay: Inhibition of β-galactosidase; assay type: biochemical; conditions: at 1 mM; pH 6.5
T2 construct: purchased Sigma
Experimental: (§1) The following solutions were prepared for enzymatic assay:
6. β-D-Galactosidase: 0.5 milligrams of solid protein (345 Units/milligram) were dissolved in 1 mL PIPES-NaOAc buffer solution.
(§2) The following illustrates the procedure in detail.

[4] = target: T3, α-Mannosidase (jack bean) (Canavalia ensiformis, UniProt C0HJB3); assay: Inhibition of α-mannosidase; assay type: biochemical
T3 construct: purchased Sigma
T3 sequence (C0HJB3 1-562 limits assumed): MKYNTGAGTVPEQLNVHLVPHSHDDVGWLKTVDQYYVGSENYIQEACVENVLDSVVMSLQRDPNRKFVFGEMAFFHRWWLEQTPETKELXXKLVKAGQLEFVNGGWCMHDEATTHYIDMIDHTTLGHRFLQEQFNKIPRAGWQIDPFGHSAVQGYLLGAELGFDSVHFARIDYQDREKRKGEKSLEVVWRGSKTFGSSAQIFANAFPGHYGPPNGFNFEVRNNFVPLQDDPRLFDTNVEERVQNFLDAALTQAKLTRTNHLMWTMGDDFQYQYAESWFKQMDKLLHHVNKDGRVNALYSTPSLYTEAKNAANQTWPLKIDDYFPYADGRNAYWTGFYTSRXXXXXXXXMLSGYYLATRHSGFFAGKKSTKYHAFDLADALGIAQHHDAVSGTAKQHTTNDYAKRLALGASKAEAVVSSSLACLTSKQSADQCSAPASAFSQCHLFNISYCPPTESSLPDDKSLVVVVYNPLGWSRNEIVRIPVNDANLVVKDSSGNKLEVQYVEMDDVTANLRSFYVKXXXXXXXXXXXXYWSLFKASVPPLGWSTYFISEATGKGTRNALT
T3 sequence (C0HJB3 563-981 limits assumed): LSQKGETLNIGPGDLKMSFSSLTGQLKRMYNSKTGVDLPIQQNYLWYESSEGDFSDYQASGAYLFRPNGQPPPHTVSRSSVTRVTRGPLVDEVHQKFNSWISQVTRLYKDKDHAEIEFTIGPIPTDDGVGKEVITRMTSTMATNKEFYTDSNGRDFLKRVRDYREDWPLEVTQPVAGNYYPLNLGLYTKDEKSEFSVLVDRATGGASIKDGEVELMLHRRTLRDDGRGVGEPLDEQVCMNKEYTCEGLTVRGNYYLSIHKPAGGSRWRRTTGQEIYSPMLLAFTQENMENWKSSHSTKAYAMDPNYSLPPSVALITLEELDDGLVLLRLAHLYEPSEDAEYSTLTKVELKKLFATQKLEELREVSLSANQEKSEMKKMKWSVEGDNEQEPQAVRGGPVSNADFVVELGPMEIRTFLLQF
Experimental: as §1
4. α-D-Mannosidase: 5 milligrams of solid protein were suspended in I mL of 3M ammonium sulfate [(NH4)2 SO4 ] and 0.1M zinc acetate (ZnOAc).
as §2

[5] = target: T1, α-Glucosidase (brewer yeast); conditions: from Fleet et al., Tetrahedron Lett., 1985, 26:3127; cited from earlier work
β-Glucosidase (almond) [6] = conditions: from Fleet et al. 1985; cited from earlier work
[7] = target: T2, β-Galactosidase (E. coli); conditions: from Fleet et al. 1985; cited from earlier work
[8] = target: T3, α-Mannosidase (jack bean); conditions: from Fleet et al. 1985; cited from earlier work
β-Xylosidase (A. niger) = β-Xylosidase (A. niger) (Aspergillus niger, UniProt O00089); conditions: from Fleet et al. 1985; cited from earlier work
glycosidases = conditions: Fleet et al., Tetrahedron Lett. 1985, 26, 3127; cited from earlier work
α-L-Fucosidase = target: T4, α-L-Fucosidase (Homo sapiens, UniProt P04066); assay: α-L-Fucosidase inhibition (fuc-pNP hydrolysis); assay type: biochemical
T4 sequence (P04066 32-466): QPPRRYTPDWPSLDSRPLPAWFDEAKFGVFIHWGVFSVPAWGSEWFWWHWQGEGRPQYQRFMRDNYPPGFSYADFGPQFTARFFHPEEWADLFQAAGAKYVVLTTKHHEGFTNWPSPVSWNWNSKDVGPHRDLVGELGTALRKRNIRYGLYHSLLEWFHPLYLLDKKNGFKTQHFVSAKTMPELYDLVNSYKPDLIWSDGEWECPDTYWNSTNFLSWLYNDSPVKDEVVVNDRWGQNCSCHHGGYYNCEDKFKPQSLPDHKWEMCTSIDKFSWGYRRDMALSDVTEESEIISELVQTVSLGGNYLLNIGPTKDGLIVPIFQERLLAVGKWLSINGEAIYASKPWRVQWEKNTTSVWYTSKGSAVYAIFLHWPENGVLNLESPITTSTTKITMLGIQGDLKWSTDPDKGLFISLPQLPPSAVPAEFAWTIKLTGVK
Experimental: α-L-Fucosidase activity was measured by incubating the enzyme (0.005 Units) with fuc-pNP ([…]) in 0.4 ml of 50 mM acetate buffer, pH 5.5 for 20 minutes at 25° C. in the absence and presence of the azasugars of the present invention. The reaction was stopped by the addition of 0.8 ml of 2 mM glycine buffer, pH 10.5. The amount of formed p-nitrophenol was determined by optical density spectroscopy at a wavelength of 400 nm.

[9] = tested on: AIDS virus gp160 envelope protein precursor; conditions: Walker et al., Proc. Natl. Acad. Sci. 1987; cited from earlier work

T1 sequence (P53341 whole entry): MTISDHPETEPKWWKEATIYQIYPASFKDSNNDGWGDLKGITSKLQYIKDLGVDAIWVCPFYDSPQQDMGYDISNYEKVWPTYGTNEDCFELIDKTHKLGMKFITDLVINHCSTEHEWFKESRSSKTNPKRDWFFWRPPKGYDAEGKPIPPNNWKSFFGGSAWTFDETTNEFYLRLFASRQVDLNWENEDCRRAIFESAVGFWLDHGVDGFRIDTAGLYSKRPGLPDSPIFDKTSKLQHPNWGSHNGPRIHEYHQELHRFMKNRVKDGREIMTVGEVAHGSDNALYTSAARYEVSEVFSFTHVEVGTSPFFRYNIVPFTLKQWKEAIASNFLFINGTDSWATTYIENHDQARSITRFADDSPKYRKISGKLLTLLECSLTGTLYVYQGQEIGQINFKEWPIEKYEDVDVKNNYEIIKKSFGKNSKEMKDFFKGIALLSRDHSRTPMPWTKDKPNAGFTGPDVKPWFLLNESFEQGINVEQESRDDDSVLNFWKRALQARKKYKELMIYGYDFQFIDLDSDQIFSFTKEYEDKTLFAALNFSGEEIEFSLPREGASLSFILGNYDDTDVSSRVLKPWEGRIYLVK
T2 sequence (P00722 2-1024 limits assumed): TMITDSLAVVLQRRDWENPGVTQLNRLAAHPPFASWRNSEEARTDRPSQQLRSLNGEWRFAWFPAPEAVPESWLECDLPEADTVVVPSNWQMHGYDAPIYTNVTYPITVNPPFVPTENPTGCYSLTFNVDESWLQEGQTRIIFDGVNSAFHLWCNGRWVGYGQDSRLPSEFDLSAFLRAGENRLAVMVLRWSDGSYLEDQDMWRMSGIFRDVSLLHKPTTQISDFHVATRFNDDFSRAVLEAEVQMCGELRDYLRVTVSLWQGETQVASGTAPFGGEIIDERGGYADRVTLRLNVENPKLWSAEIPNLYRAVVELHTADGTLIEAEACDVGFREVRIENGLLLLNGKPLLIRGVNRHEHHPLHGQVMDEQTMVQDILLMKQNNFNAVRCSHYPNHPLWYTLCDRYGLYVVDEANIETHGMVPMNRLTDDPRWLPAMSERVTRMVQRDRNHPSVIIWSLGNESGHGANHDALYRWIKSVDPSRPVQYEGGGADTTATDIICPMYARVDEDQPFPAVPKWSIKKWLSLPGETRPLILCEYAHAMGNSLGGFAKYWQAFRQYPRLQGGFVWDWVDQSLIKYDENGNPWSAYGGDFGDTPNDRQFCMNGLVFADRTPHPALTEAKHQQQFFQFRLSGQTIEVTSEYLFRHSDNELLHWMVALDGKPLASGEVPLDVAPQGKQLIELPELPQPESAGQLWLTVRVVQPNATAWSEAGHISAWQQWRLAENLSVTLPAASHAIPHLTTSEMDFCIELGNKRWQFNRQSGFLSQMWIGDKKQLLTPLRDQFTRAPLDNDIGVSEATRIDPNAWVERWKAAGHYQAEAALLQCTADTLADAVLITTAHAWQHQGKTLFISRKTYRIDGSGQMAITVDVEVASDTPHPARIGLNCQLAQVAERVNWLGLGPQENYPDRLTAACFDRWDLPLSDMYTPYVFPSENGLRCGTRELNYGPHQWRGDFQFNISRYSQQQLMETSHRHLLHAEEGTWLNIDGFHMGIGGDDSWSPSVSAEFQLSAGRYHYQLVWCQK
Sequence of β-Xylosidase (A. niger) (O00089 27-804): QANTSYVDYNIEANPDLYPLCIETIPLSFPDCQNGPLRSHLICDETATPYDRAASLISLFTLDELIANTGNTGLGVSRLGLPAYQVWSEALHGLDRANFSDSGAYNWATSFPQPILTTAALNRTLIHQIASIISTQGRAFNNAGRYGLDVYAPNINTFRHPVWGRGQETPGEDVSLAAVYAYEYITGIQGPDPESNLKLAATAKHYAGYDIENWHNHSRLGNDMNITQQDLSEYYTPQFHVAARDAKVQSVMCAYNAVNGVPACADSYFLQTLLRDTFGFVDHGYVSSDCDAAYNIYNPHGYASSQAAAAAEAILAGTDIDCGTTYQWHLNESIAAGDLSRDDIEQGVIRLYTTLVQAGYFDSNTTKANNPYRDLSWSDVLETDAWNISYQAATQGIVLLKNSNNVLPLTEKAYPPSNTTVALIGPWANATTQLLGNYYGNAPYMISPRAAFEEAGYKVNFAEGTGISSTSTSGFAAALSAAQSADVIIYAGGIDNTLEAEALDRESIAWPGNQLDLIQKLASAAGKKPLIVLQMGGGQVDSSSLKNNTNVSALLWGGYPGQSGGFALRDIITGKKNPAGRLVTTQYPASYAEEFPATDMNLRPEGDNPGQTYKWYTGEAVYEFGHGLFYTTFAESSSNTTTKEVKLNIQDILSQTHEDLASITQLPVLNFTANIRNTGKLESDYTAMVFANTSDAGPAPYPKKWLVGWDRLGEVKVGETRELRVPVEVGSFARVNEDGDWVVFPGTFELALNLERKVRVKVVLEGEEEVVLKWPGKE

For OC[C@@H]1N[C@H](CO)[C@@H](O)[C@@H]1O [Compound 2, (2R,5S)-dihydroxymethyl-(3R,4R)-dihydroxypyrrolidine], the Ki [1] was 2.8 µM, the Ki (β-Glucosidase (almond) [2]) was 19 µM and the “Ki Values, β-Galactosidase (E. coli)” value [3] was “No inhibition”. For the same compound, the “inhibition of an α-mannosidase (in words)” value [4] was “significant inhibition” and the Ki ([4]; pH 6.5) was 3100 µM.

For OC[C@H]1N[C@H](CO)[C@@H](O)[C@@H]1O [Compound X, (2R,5R)-dihydroxymethyl-(3R,4R)-dihydroxypyrrolidine], the Ki [5] is listed as 3.3 µM, the Ki (β-Glucosidase (almond) [6]) is listed as 7.8 µM and the “Ki Values, β-Galactosidase (E. coli)” value [7] is listed as “No inhibition”. The “Ki Values, α-Mannosidase (jack bean)” value [8] was “no inhibitory activity; also recorded: no inhibition”, the Ki (β-Xylosidase (A. niger)) was 250 µM and the “inhibition against glycosidases, including α- and β-glucosidases and β-xylosidase (in words)” value (glycosidases) was “broad spectrum of inhibition”.

With C[C@@H]1OC(O)[C@@H](O)[C@H](O)[C@@H]1O (stereo partly drawn) [L-fucose] the “type of inhibition of fucosidase” value (α-L-Fucosidase; versus fuc-pNP) was “competitive inhibitor” and the Ki (α-L-Fucosidase; versus fuc-pNP, 50 mM acetate buffer pH 5.5, 25° C., read-out: Ki, α-L-Fucosidase inhibition) was 300 µM.

In the case of OC1CN2CCC(O)C2C(O)C1O (stereo not shown) [castanospermine, 1,6,7,8tetrahydroxyoctahydroindolizine], the “inhibition of processing of the AIDS virus gp160 envelope protein precursor (in words)” value [9] is given as “inhibit the processing”.

In the case of Oc1ccccc1 [phenol], the Ki (α-L-Fucosidase) is reported as 180 ± 20 µM and the “type of inhibition of fucosidase” value (α-L-Fucosidase; versus fuc-pNP) is reported as “noncompetitive inhibitor”.
